Assays:
Format in all cases: cell-based, human
[1] = test system: MRE11 deficient A2780cis cells; test: FEN1 inhibitor cytotoxicity, MRE11 deficient A2780cis; conditions: vs A2780cis control
A2780cis cells [2] = test: γH2AX analysis, A2780cis; conditions: FEN1i plus cisplatin
Method: (§1) Graphical representation and statistical analysis of mean tail moment was performed in GraphPad Prism 6 (GraphPad, La Jolla, USA). All experiments were done in duplicate three times.
(§2) γH2AX FACS: For monitoring DNA double strand break accumulation by γH2AX FACS, 1.05×104 Cells/cm2 were seeded in 6-well plates and left overnight at 37°C in a 5% CO 2 atmosphere. Cisplatin (5µM) or FEN1i (10µM) was later added to cells and incubated for 24h and 48h at 37°C in a 5% CO2 atmosphere. Cells were collected by trypsinization, washed […]
(§3) with ice cold PBS and fixed in 70% ethanol for 1h at -20°C. After removal of the fixative solution by centrifugation, cells were stained with 2 µg/ml of phospho-Histone (γH2AX) Ser139 (16202A, Millipore, UK) to detect DSBs.
(§4) Cell cycle progression: Cells were treated with 20 µg/ml RNase A (12091021, Invitrogen) and then 10 µg/ml Propidium Iodide (P4170, Sigma Aldrich) was added to determine the cell cycle distribution. The samples were analysed on a Beckman-Coulter FC500 flow cytometer using a 488nm laser for excitation and emission data for PI collected using a 620nm bandpass filter (FL3) and a 525nm bandpass filter (FL1) for FITC-anti-phospho-Histone H2A.X. […]
(§5) Graphical representation and statistical analysis was performed in GraphPad Prism 7 (GraphPad, La Jolla, USA). […]

PEO4 cells = test: γH2AX analysis, PEO4; conditions: FEN1i plus cisplatin
Method: as §1, §2, §3, §4, §5

A2780cis cells [3] = test: Annexin V apoptosis detection, A2780cis; conditions: FEN1i plus cisplatin
Method: Apoptosis detection: Annexin V detection kit (556547, BD Biosciences) was used to quantify apoptotic cells. Briefly, cells were trypsinized, washed with PBS and the cellular pellet was re-suspended in Anexin Binding Buffer (1×). Following, FITC Anexin V and Propidium Iodide were added to the cells. After incubation, Anexin binding Buffer (1×) was added to each tube. All the samples were analysed on a Beckman-Coulter FC500 flow cytometer. The percentage of apoptotic cells was determined (late apoptotic = FITC-Annexin V positive, PI positive early apoptotic = FITC-Annexin V positive, PI negative; live cells = FITC-Annexin V negative, PI negative) and compared for untreated and treated samples. Graphical representation and statistical analysis was performed in GraphPad Prism 7 (GraphPad, La Jolla, USA).
3D Spheroid assays: A2780_control and A2780 FEN1_ KO as well as A2780cis_control and A2780cis FEN1_ KO cells were seeded at 4500 cells/cm2 density in ultra-low attachment 6-well plates (174932, Thermo Fisher Scientific) and cultured in 3D Tumorsphere Medium (C28070, PromoCell, UK) at 37°C in a 5% CO2 atmosphere. Cells were keep in culture for 7-10 days, toping up with fresh medium every two days until spheroids structures were formed.

FEN1 mRNA in A2780 cells = test: qRT-PCR FEN1 mRNA expression, A2780; conditions: 24 h exposure to cisplatin
Method: (1:200, ab26343). Infrared dye-labelled secondary antibodies (Li-Cor) [IRDye 800CW Donkey Anti-Rabbit IgG and IRDye 680CW Donkey Anti-Mouse IgG] were incubated at a dilution of 1:10000 for 1 h. Membranes were scanned with a LiCor Odyssey machine (700 and 800 nm) to determine protein expression. ß-Tubulin or ß-actin was used as a loading controls for the whole cell lysates. GADPH and YYI were used as loading controls to cytoplasmic and nuclear fractions, respectively. First incubation was with FEN1 antibody and then imaged. This was followed by incubation with loading control and then imaged for analysis. Bar charts show means of optical density (O.D.) ± S.D and all data is representative of at least three independent experiments. qRT-PCR analysis of FEN1 gene expre ssion: RNA was extracted using the RNeasy Mini Kit (74104, Qiagen) and quantified using a Nanodrop 2000c (Thermo Fisher Scientific). cDNA synthesis was performed using the RT2 First Strand Kit (330404, Qiagen). Real time PCR was carried out on an Applied Biosystems […] FAST cycler.
Neutral COMET assay: 1.0x10^5 cells per well were seeded in 6 well tissue culture plates and incubated at 37°C and 5% CO2 overnight. […] Fifty comets were scored per sample using Comet Assay III/IV image analysis software (Perceptive Instruments, Bury St Edmonds, UK). […]

[4] = test system: FEN1 nuclear level in A2780cis cells; test: Nuclear extract western blot for FEN1, A2780cis; conditions: 5 µM cisplatin, 24 h
Method: Clonogenic assay: In the clonogenic assay (colony formation assays), 32 cells/cm2 were seeded in 6-well plates and left at 37°C in a 5% CO2 atmosphere. Cisplatin (5µM) and/or FEN1i (10µM) and/or Importazole (5 µM, Selleckem, S8446 ) were added at the indicated concentrations and the plates were left at 37 °C in a 5% CO 2 atmosphere for 14 days. Later, the plates were washed with PBS, fixed and stained with a crystal violet, acetic acid and methanol solution and colonies were counted.
Nuclear and cytoplasmic extract: Cells were harvest by trypsinization, washed with PBS and centrifuged at 1000×g for 5min. […] Protein level were then quantified prior to use in western blots.
BCA protein quantification: Protein quantification was done using the Pierce BCA kit assay by Thermo Fisher Scientific. […] The plate was incubated at 37°C during 30 min in the dark and the absorbance was measured by FLUOstar OPTIMA, UK/ Infinite® F50 (UK) microplate reader at 590 nm. […]
Western Blot Analysis: Cells were harvested and lysed in RIPA buffer (R0278, Sigma) with the addition of protease cocktail inhibitor (P8348, Sigma), phosphatase inhibitor cocktail 2 (P5726, Sigma) and phosphatase inhibitor cocktail 3 (P0044, Sigma) and stored at - 20°C. Protein was quantified using BCA Protein Assay kit (23225, Thermo Fisher). […]

SMILES	sensitivity to FEN1 inhibitor [1]	γH2AX nuclear foci (A2780cis cells [2])	γH2AX nuclear foci (PEO4 cells)	apoptosis (A2780cis cells [3])	FEN1 mRNA expression after cisplatin (FEN1 mRNA in A2780 cells)	nuclear level of FEN1 after cisplatin [4]
Cc1csc2c1c(=O)n(O)c(=O)n2-c1ccccc1 [PTPD, 3-hydroxy-5-methyl-1-phenylthieno [2,3 d]pyrimidine-2,4(1H,3H)-dione]	did not observe increased sensitivity	induced nuclear γH2AX nuclear foci accumulation	increased nuclear γH2AX nuclear foci accumulation	accumulation of apoptotic cells		
N.N.[Cl][Pt][Cl] [cisplatin]					transient induction of FEN1 mRNA expression on day 1	significantly increased

— paper PMC8070745, “FEN1 Blockade for Platinum Chemo-Sensitization and Synthetic Lethality in Epithelial Ovarian Cancers” (Cancers, 2021)
